Measured values: ChEMBL document CHEMBL2016454, “Design and synthesis of dihydrobenzofuran amides as orally bioavailable, centrally active γ-secretase modulators” (Bioorg Med Chem Lett, 2012)
The source made the active and inactive calls. The rule behind the calls is not given here.

Assays:
[1] = Inhibition of gamma secretase expressed in CHO cells expressing APP assessed as amyloid beta42 production; type: cell-based
MDR1 (P-gp), human = test: Efflux ratio of permeability in MDCK cells over expressing human MDR1; type: ADME, cell-based, Canis lupus familiaris; conditions: dog
[2] = Intrinsic clearance in human liver microsomes; type: ADME, Microsome; conditions: read-out: CLH
Cavia porcellus [3] = test: Antialzheimer activity in Hartley guinea pig assessed as reduction of amyloid beta42 level in brain at 100 mg/kg, po after 4 hrs; type: functional; parameters: scale not given: the % may be the effect or the level left
[4] = Half life in rat; type: ADME, organism-based; conditions: in vivo
[5] = Drug uptake in Hartley guinea pig brain at 100 mg/kg, po after 4 hrs post dose; type: ADME, organism-based, Cavia porcellus; parameters: dose 100 mg/kg, route oral; conditions: read-out: Drug uptake
[6] = Volume of distribution at steady state in rat; type: ADME, organism-based; conditions: in vivo, read-out: Vdss
[7] = Oral bioavailability in rat; type: ADME, organism-based; conditions: in vivo
[8] = Total plasma concentration in Hartley guinea pig at 100 mg/kg, po after 4 hrs post dose; type: ADME, organism-based, Cavia porcellus; parameters: dose 100 mg/kg, route oral
[9] = Fraction unbound in Hartley guinea pig plasma at 100 mg/kg, po after 4 hrs post dose; type: ADME, organism-based, Cavia porcellus; parameters: dose 100 mg/kg, route oral
Cytochrome P450 3A4 = Cytochrome P450 3A4 (Homo sapiens, UniProt P08684); test: Inhibition of CYP3A4; type: ADME
Chain of Cytochrome P450 3A4 (P08684 whole entry): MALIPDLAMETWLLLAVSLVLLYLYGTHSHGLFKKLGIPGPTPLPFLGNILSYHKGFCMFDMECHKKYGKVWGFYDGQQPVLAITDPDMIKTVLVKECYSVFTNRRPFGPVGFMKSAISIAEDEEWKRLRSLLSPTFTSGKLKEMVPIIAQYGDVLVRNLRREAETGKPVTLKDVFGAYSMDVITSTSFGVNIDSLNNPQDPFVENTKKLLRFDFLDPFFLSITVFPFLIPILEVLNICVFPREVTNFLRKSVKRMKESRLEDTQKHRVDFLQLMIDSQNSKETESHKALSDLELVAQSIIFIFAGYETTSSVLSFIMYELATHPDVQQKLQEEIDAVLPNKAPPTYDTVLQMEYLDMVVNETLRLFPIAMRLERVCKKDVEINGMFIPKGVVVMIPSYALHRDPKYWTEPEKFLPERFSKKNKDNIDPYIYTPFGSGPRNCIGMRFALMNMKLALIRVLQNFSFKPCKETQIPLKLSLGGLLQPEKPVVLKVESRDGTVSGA

Cytochrome P450 2D6 = Cytochrome P450 2D6 (Homo sapiens, UniProt P10635); test: Inhibition of CYP2D6; type: ADME
Chain of Cytochrome P450 2D6 (P10635 whole entry): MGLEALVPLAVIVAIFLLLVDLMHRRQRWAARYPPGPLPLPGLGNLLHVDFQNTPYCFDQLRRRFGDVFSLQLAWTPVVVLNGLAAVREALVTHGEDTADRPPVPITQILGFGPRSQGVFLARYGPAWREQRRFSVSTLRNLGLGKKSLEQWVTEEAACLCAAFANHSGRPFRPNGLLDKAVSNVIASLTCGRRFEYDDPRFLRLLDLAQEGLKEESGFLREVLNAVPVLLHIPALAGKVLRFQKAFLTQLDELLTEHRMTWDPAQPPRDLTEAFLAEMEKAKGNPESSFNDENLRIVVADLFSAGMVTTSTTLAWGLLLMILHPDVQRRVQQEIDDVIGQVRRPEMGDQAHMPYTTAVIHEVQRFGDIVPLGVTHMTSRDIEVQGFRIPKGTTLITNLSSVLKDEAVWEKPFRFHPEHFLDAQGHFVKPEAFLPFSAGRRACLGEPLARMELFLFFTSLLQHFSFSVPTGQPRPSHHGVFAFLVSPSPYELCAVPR

[10] = Ratio of fraction unbound in Hartley guinea pig brain to IC50 of gamma secretase expressed in CHO cells expressing APP assessed as amyloid beta42 production; type: ADME, cell-based
[11] = Clearance in rat; type: ADME, organism-based; conditions: in vivo
[12] = Fraction unbound in Hartley guinea pig brain at 100 mg/kg, po after 4 hrs post dose […]; type: ADME, organism-based, Cavia porcellus; parameters: dose 100 mg/kg, route oral
Cavia porcellus [13] = test: Antialzheimer activity in Hartley guinea pig assessed as reduction of amyloid beta40 level in brain at 100 mg/kg, po after 4 hrs; type: functional; parameters: scale not given: the % may be the effect or the level left
Gamma-secretase = test: Inhibition of gamma-secretase expressed in human HEK293 NdeltaE cells assessed as cleavage of Notch; type: cell-based
Brain = test: Ratio of drug level in p-gp knock-out mouse brain to wild type mouse brain; type: ADME, tissue-based; conditions: in vivo
Cavia porcellus [14] = test: Antialzheimer activity in Hartley guinea pig assessed as effect on total amyloid beta level in plasma at 100 mg/kg, po after 4 hrs; type: functional, organism-based; parameters: dose 100 mg/kg
Cavia porcellus [15] = test: Antialzheimer activity in Hartley guinea pig assessed as increase of amyloid beta38 level in plasma at 100 mg/kg, po after 4 hrs; type: functional
Cavia porcellus [16] = test: Antialzheimer activity in Hartley guinea pig assessed as effect on total amyloid beta level in brain at 100 mg/kg, po after 4 hrs; type: functional, organism-based; parameters: dose 100 mg/kg

Row | SMILES | IC50 [1] [nM] | efflux ratio (MDR1 (P-gp), human) | microsomal CLint [2] [µL/min/mg] | also measured
1 | COc1nc(C(=O)N[C@H]2COc3ccc(Cl)cc32)ccc1-n1cnc(C)c1 | 343 | 1.3 | 28 | –
2 | COc1cc(C(=O)N2CC[C@H](Oc3ccccc3C(F)(F)F)C2)cnc1-n1cnc(C)c1 | 3440 | 1.6 | – | –
3 | COc1cc(C(=O)N[C@@H](C)c2ccc(F)cc2)ccc1-n1cnc(C)c1 | 4400 | 1.1 | 12.6 | –
4 | COc1nc(C(=O)N2CC[C@H](Oc3ccccc3C(F)(F)F)C2)cnc1-n1cnc(C)c1 | 535 | – | – | –
5 | COc1cc(C(=O)NCc2cccc(C(F)(F)F)c2)ccc1-n1cnc(C)c1 | 659 | 1.8 | 29.2 | –
6 | COc1nc(C(=O)N2CC[C@H](Oc3ccccc3C(F)(F)F)C2)ccc1-n1cnc(C)c1 | 208 | 1.1 | 48.7 | –
7 | COc1cc(C(=O)N[C@H]2CCc3ccc(Cl)cc32)ccc1-n1cnc(C)c1 | 605 | 0.5 | 32.7 | –
8 | COc1cc(C(=O)NCc2nnc(-c3cccc(Cl)c3)o2)ccc1-n1cnc(C)c1 | 1460 | 8.7 | – | –
9 | COc1nc(C(=O)N[C@H]2COc3ccc(Cl)c(F)c32)ccc1-n1cnc(C)c1 | 188 | 1.4 | 30 | Activity (Cavia porcellus [3]): 36%; half-life [4]: 0.64 h; concentration at 4 h [5]: 3710 ng/g; Vd [6]: 1.78 L; bioavailability [7]: 51%; concentration at 4 h [8]: 1290 ng/mL; fraction unbound at 4 h [9]: 0.078; IC50 (Cytochrome P450 3A4): > 30000 nM; IC50 (Cytochrome P450 2D6): > 30000 nM; Ratio [10]: 0.31; clearance [11]: 31.4 mL/min/kg; fraction unbound at 4 h [12]: 0.0097; Activity (Cavia porcellus [13]): 16%; IC50 (Gamma-secretase): > 50000 nM
10 | COc1cc(C(=O)NC2COc3cccc(Cl)c32)ccc1-n1cnc(C)c1 (racemic) | 1660 | 1.7 | 97.3 | –
11 | COc1cc(C(=O)N2CC[C@](O)(COc3ccccc3C(F)(F)F)C2)ccc1-n1cnc(C)c1 | 256 | 24 | 124 | –
12 | COc1cc(C(=O)NCc2cc(-c3cccc(Cl)c3)no2)ccc1-n1cnc(C)c1 | 330 | 3.8 | 30 | –
13 | COc1cc(C(=O)NCc2cnc(-c3ccccc3)s2)ccc1-n1cnc(C)c1 | 332 | 3.2 | 29.3 | Ratio (Brain): 5
14 | CCOc1cc(C)c(CN(C(=O)c2ccc(-n3cnc(C)c3)c(OC)c2)C2CC2)cc1C(C)C | 114 | – | 122 | –
15 | COc1cc(C(=O)N[C@H]2COc3c(Cl)cccc32)ccc1-n1cnc(C)c1 | 1690 | – | 19.4 | –
16 | COc1cc(C(=O)N2CC[C@H](Oc3ccccc3C(F)(F)F)C2)ccc1-n1cnc(C)c1 | 320 | 2.5 | 50.8 | –
17 | COc1cc(C(=O)NC2COc3cc(Cl)ccc32)ccc1-n1cnc(C)c1 (racemic) | 1960 | – | 35.6 | –
18 | COc1cc(C(=O)NCC2(c3ccc(F)cc3)CCC2)ccc1-n1cnc(C)c1 | 309 | 1.6 | 112 | –
19 | COc1cc(C(=O)N2CC[C@H](Oc3ccccc3C(F)(F)F)C2)ncc1-n1cnc(C)c1 | 5330 | – | – | –
20 | COc1ccc2c(c1)[C@@H](NC(=O)c1ccc(-n3cnc(C)c3)c(OC)c1)CO2 | 2990 | – | 16.9 | –
21 | COc1cc(C(=O)N[C@H]2COc3ccc(Cl)cc32)ccc1-n1cnc(C)c1 | 521 | 1.6 | 22.3 | Activity (Cavia porcellus [3]): 57%; half-life [4]: 2.43 h; Activity (Cavia porcellus [14]): inactive; concentration at 4 h [5]: 22100 ng/g; Vd [6]: 1.87 L; bioavailability [7]: 100%; concentration at 4 h [8]: 5120 ng/mL; fraction unbound at 4 h [9]: 0.088; Activity (Cavia porcellus [15]): 72%; Ratio [10]: 2.1; clearance [11]: 9.63 mL/min/kg; fraction unbound at 4 h [12]: 0.018; Activity (Cavia porcellus [13]): 32%; Activity (Cavia porcellus [16]): inactive; IC50 (Gamma-secretase): > 50000 nM
22 | COc1nc(C(=O)NC2COc3ccc(Cl)c(C)c32)ccc1-n1cnc(C)c1 (racemic) | 234 | 1.8 | 49.3 | –
23 | COc1cc(/C=C2\CCCN([C@@H](C)c3ccc(F)cc3)C2=O)ccc1-n1cnc(C)c1 | 143 | 2.2 | 37.1 | –
24 | COc1cc(C(=O)NC2COc3ccc(F)cc32)ccc1-n1cnc(C)c1 (racemic) | 1560 | – | 21.8 | –
